Measured values reported in publication PMC10797628.
Where two headings read alike, the source gives them in different places.

Tests used:
human 5-HT1A receptor [1] = target: T1, human 5-HT1A receptor (Homo sapiens, UniProt P08908); assay: Radioligand binding (saturation and competition), WT 5-HT1A
T1 construct: host or cells: HEK293T
T1 sequence (P08908 1-422): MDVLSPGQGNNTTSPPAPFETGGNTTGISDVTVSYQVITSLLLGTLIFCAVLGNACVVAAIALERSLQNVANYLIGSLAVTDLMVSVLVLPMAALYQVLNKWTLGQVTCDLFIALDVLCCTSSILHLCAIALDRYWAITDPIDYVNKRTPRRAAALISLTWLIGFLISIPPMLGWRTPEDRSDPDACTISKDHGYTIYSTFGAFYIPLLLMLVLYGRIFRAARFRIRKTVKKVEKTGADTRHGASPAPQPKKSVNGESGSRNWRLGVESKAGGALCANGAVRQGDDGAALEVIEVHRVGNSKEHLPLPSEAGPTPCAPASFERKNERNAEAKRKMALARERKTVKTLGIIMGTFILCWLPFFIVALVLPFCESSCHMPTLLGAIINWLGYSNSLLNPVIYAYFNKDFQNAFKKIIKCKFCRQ

human 5-HT1D receptor [2] = target: T2, human 5-HT1D receptor (Homo sapiens, UniProt P28221); assay: Radioligand binding (saturation and competition), WT 5-HT1D
T2 construct: host or cells: HEK293T

human 5-HT1B receptor [3] = target: T3, human 5-HT1B receptor (Homo sapiens, UniProt P28222); assay: Radioligand binding (saturation and competition), WT 5-HT1B
T3 construct: host or cells: HEK293T

human 5-HT1F receptor = target: T4, human 5-HT1F receptor (Homo sapiens, UniProt P30939); assay: Radioligand binding (saturation and competition), WT 5-HT1F
T4 construct: host or cells: HEK293T
T4 sequence (P30939 1-366): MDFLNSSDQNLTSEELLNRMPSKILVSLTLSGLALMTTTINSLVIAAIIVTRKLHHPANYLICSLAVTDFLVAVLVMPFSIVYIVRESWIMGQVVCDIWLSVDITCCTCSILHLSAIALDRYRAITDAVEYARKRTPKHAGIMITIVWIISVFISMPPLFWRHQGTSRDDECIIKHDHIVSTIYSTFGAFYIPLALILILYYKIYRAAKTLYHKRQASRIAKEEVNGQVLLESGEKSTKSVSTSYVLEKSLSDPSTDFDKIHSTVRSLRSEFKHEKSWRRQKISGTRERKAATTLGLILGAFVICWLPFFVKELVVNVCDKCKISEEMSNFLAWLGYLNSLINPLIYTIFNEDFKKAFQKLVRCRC

human 5-HT1D receptor [4] = target: T2, human 5-HT1D receptor; assay: cAMP accumulation (LANCE Ultra TR-FRET) in HEK293T cells, WT 5-HT1D; assay type: cell-based; conditions: for EC50: cAMP accumulation, HEKt cells, mean ± SD; for Emax: HEK-293T
Description: (§1) Briefly, cells transfected with the desired receptor construct and compounds were incubated in the dark for 90 min at 37 °C. After incubation, cAMP detection reagents were added, and TR-FRET was used to quantify the cAMP produced.
(§2) The functional activity of compounds was determined by stimulating cells expressing the desired receptor with FSK and test compound in parallel with 12 known concentrations of cAMP. The known concentrations of cAMP were used to create a standard curve for each experiment that was used to interpolate the unknown values of cAMP in wells with test compounds. […] The EC50 and EMAX values were determined using the “dose response – log[agonist] vs response (three parameter)” nonlinear regression model in Prism and transformed to pEC50 values, reported as mean ± SD.
(§3) Summary of functional assay conditions at various 5-HT1 receptor point mutation constructs.

human 5-HT1A receptor [5] = target: T1, human 5-HT1A receptor; assay: cAMP accumulation (LANCE Ultra TR-FRET) in HEK293T cells, WT 5-HT1A; assay type: cell-based; conditions: for EC50: cAMP accumulation, HEKt cells, mean ± SD; for Emax: HEK-293T
Description: as §1, §2, §3

human 5-HT1B receptor [6] = target: T3, human 5-HT1B receptor; assay: cAMP accumulation (LANCE Ultra TR-FRET) in HEK293T cells, WT 5-HT1B; assay type: cell-based; conditions: for EC50: cAMP accumulation, HEKt cells, mean ± SD; for Emax: HEK-293T
Description: as §1, §2, §3

[7] = Affinity (pKi ± SD) 5-HT1A, WT receptor, [^3H]5-CT competition, mean ± SD
[8] = Affinity (pKi ± SD) 5-HT1D, WT receptor, [^3H]5-CT competition, mean ± SD
[9] = Affinity (pKi ± SD) 5-HT1B, WT receptor, [^3H]5-CT competition, mean ± SD
[10] = read-out: 5-HT1D EMAX (%), WT receptor, normalized to basal (0%) and 10 μM 5-CT (100%)
[11] = read-out: 5-HT1A EMAX (%), WT receptor, normalized to basal (0%) and 10 μM 5-CT (100%)
[12] = read-out: 5-HT1B EMAX (%), WT receptor, normalized to basal (0%) and 10 μM 5-CT (100%)
[13] = WT receptor, [^3H]5-CT competition, mean ± SD
[14] = WT receptor, normalized to basal (0%) and 10 μM 5-CT (100%)
[15] = read-out: Affinity (pKi ± SD) 5-HT1A (converted)
[16] = read-out: Affinity (pKi ± SD) 5-HT1D (converted)
[17] = WT receptor, [^3H]5-HT competition, mean ± SD, read-out: Affinity (pKi ± SD) 5-HT1F (converted)
[18] = read-out: Affinity (pKi ± SD) 5-HT1B (converted)

T2 sequence (P28221 whole entry): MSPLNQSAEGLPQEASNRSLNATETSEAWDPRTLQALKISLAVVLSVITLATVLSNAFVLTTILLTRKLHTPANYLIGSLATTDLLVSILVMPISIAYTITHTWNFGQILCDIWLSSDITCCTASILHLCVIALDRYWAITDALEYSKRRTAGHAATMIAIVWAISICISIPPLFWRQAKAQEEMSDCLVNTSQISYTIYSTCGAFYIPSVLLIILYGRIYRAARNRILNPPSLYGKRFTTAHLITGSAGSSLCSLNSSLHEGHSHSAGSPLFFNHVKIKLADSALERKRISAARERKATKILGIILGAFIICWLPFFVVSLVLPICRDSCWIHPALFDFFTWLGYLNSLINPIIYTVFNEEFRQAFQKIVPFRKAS
T3 sequence (P28222 whole entry): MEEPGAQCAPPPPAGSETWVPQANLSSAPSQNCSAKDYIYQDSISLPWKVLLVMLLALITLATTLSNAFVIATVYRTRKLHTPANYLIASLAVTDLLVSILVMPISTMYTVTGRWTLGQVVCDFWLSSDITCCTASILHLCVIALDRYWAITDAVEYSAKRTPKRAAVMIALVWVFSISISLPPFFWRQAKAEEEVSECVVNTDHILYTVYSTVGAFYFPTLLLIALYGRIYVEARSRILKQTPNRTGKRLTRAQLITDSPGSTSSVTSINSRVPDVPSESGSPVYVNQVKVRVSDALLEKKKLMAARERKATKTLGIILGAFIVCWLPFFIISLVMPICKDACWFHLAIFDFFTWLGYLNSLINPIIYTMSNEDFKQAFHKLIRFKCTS

## CN(C)[C@H]1CCc2c(cccc2-c2cccs2)C1 [(S)-TAT]
Human 5-HT1A receptor [1]; [7]
  Ki: 6.17 nM
Human 5-HT1D receptor [2]; [8]
  Ki: 1.7 nM
Human 5-HT1B receptor [3]; [9]
  Ki: 6.31 nM
Human 5-HT1F receptor
  Ki: > 10 µM
Human 5-HT1D receptor [4]; 5-HT1D pEC50, WT receptor
  EC50: 41.7 nM
Human 5-HT1D receptor [4]; [10]
  Emax: 60 ± 3%
Human 5-HT1A receptor [5]; 5-HT1A pEC50, WT receptor
  EC50: 23.4 nM
Human 5-HT1A receptor [5]; [11]
  Emax: 91 ± 3%
Human 5-HT1B receptor [6]; 5-HT1B pEC50, WT receptor
  EC50: 15.8 nM
Human 5-HT1B receptor [6]; [12]
  Emax: 85 ± 4%

## CN(C)[C@H]1CCc2c(cccc2-c2ccccc2)C1 [(S)-5-PAT]
Human 5-HT1A receptor [1]; [13]
  Affinity (pKi ± SD) 5-HT1A: 8.20 ± 0.04
Human 5-HT1D receptor [2]; [8]
  Ki: 0.661 nM
Human 5-HT1B receptor [3]; [9]
  Ki: 10.2 nM
Human 5-HT1F receptor
  Ki: 6.76 µM
Human 5-HT1D receptor [4]; 5-HT1D pEC50, WT receptor
  EC50: 0.741 nM
Human 5-HT1D receptor [4]; [10]
  Emax: > 90%
Human 5-HT1D receptor [4]; [14]
  5-HT1D EMAX (%): 97 ± 2%
Human 5-HT1D receptor [4]; cAMP potency ratio
  more potent at the 5-HT1D receptor compared to 5-HT1A and 5-HT1B receptors: over 10 fold
Human 5-HT1A receptor [5]; 5-HT1A pEC50, WT receptor
  EC50: 70.8 nM
Human 5-HT1A receptor [5]; [11]
  Emax: > 90%
Human 5-HT1A receptor [5]; [14]
  5-HT1A EMAX (%): 100 ± 2%
Human 5-HT1B receptor [6]; 5-HT1B pEC50, WT receptor
  EC50: 14.5 nM
Human 5-HT1B receptor [6]; [12]
  Emax: ~30%
Human 5-HT1B receptor [6]; [14]
  5-HT1B EMAX (%): 28 ± 3%

## CCCN(CCC)C1CCc2cccc(O)c2C1 (stereo not shown) [8-OH-DPAT, 8-hydroxy-N,N-dipropyl-1,2,3,4-tetrahydronaphthalen-2-amine, reference compound]
Human 5-HT1A receptor [1]; affinity ratio
  higher affinity at the 5-HT1A receptor over 5-HT1B and 5-HT1D receptors: 10–20 fold

## CCCN(CCC)[C@@H]1CCc2c(cccc2-c2ccccc2Cl)C1 [(R)-DCPT]
Human 5-HT1A receptor [1]; [7]
  Ki: 117 nM
Human 5-HT1D receptor [2]; [8]
  Ki: 117 nM
Human 5-HT1B receptor [3]; [9]
  Ki: 55 nM
Human 5-HT1F receptor
  Ki: > 10 µM

## CN1CCC(c2c[nH]c3ccc(NC(=O)c4ccc(F)cc4)cc23)CC1 [LY334370, reference compound]
Human 5-HT1A receptor [1]; [15]
  Ki: 501 nM
Human 5-HT1D receptor [2]; [16]
  Ki: 2040 nM
Human 5-HT1F receptor; [17]
  Ki: 0.00832 µM

## CN(C)[C@H]1CCc2c(cccc2-c2c(F)cccc2F)C1 [Di-FPT, (S)-5-(2,6-Difluorophenyl)-N,N-dimethyl-1,2,3,4-tetrahydronaphthalen-2-amine]
Human 5-HT1A receptor [1]; [7]
  Ki: 1.7 nM
Human 5-HT1D receptor [2]; [8]
  Ki: 1.41 nM
Human 5-HT1B receptor [3]; [9]
  Ki: 1.62 nM
Human 5-HT1D receptor [4]; 5-HT1D pEC50, WT receptor
  EC50: 1.66 nM
Human 5-HT1D receptor [4]; [10]
  Emax: 100 ± 1%
Human 5-HT1A receptor [5]; 5-HT1A pEC50, WT receptor
  EC50: 1.74 nM
Human 5-HT1A receptor [5]; [11]
  Emax: 98 ± 2%
Human 5-HT1B receptor [6]; 5-HT1B pEC50, WT receptor
  EC50: 2.09 nM
Human 5-HT1B receptor [6]; [12]
  Emax: 100 ± 1%

## CN(C)[C@H]1CCc2c(cccc2-c2ccco2)C1 [(S)-FAT]
Human 5-HT1A receptor [1]; [13]
  Affinity (pKi ± SD) 5-HT1A: 7.48 ± 0.06
Human 5-HT1D receptor [2]; [8]
  Ki: 11.7 nM
Human 5-HT1B receptor [3]; [9]
  Ki: 132 nM
Human 5-HT1F receptor
  Ki: 9.33 µM
Human 5-HT1D receptor [4]; 5-HT1D pEC50, WT receptor
  EC50: 12 nM
Human 5-HT1D receptor [4]; [10]
  Emax: 100 ± 2%
Human 5-HT1A receptor [5]; 5-HT1A pEC50, WT receptor
  EC50: 490 nM
Human 5-HT1A receptor [5]; [11]
  Emax: 92 ± 4%
Human 5-HT1B receptor [6]; 5-HT1B pEC50, WT receptor
  EC50: 117 nM
Human 5-HT1B receptor [6]; [12]
  Emax: 102 ± 3%

## Fc1ccccc1-c1cccc2c1CC[C@@H](N1CCCC1)C2 [(R)-PFPT]
Human 5-HT1A receptor [1]; [15]
  Ki: 288 nM
Human 5-HT1D receptor [2]; [16]
  Ki: 417 nM
Human 5-HT1B receptor [3]; [18]
  Ki: 457 nM
Human 5-HT1F receptor; [17]
  Ki: > 10 µM

## CCCN(CCC)[C@@H]1CCc2c(cccc2-c2ccccc2F)C1 [(R)-DFPT]
Human 5-HT1A receptor [1]; [7]
  Ki: 117 nM
Human 5-HT1D receptor [2]; [8]
  Ki: 107 nM
Human 5-HT1B receptor [3]; [9]
  Ki: 64.6 nM
Human 5-HT1F receptor
  Ki: > 10 µM

## O=C1CCc2ccc(OCCCCN3CCN(c4cccc(Cl)c4Cl)CC3)cc2N1 [Aripiprazole, aripiprazole, reference compound]
Human 5-HT1F receptor; [17]
  Ki: 7.24 µM
Human 5-HT1D receptor [4]; [10]
  Emax: 96 ± 1%
Human 5-HT1A receptor [5]; [11]
  Emax: 96 ± 2%
Human 5-HT1B receptor [6]; [12]
  Emax: 99 ± 3%

## Fc1ccccc1-c1cccc2c1CC[C@H](N1CCNCC1)C2 [FPIP, (S)-1-(5-(2-Fluorophenyl)-1,2,3,4-tetrahydronaphthalen-2-yl)piperazine]
Human 5-HT1A receptor [1]; [15]
  Ki: 0.977 nM
Human 5-HT1D receptor [2]; [16]
  Ki: 87.1 nM
Human 5-HT1B receptor [3]; [18]
  Ki: 107 nM
Human 5-HT1D receptor [4]; read-out: 5-HT1D EMAX (%)
  Emax: 98 ± 2%
Human 5-HT1D receptor [4]; WT receptor, read-out: 5-HT1D pEC50 (converted)
  EC50: 148 nM
Human 5-HT1A receptor [5]; read-out: 5-HT1A EMAX (%)
  Emax: 95 ± 2%
Human 5-HT1A receptor [5]; WT receptor, read-out: 5-HT1A pEC50 (converted)
  EC50: 1.2 nM
Human 5-HT1A receptor [5]; full efficacy 5-HT1A agonist
  selectivity over 5-HT1B and 5-HT1D receptors: 100 fold
Human 5-HT1B receptor [6]; read-out: 5-HT1B EMAX (%)
  Emax: 99 ± 3%
Human 5-HT1B receptor [6]; WT receptor, read-out: 5-HT1B pEC50 (converted)
  EC50: 126 nM

## Cc1ccc(CNCC2(F)CCN(C(=O)c3ccc(F)c(Cl)c3)CC2)nc1 [NLX-112, reference compound]
Human 5-HT1D receptor [2]; [8]
  Ki: > 10000 nM
Human 5-HT1B receptor [3]; [9]
  Ki: > 10000 nM
Human 5-HT1F receptor
  Ki: > 10 µM
Human 5-HT1D receptor [4]; read-out: 5-HT1D pEC50 (converted), WT receptor
  EC50: > 10000 nM
Human 5-HT1A receptor [5]; read-out: 5-HT1A EMAX (%)
  Emax: 100 ± 3%
Human 5-HT1B receptor [6]; read-out: 5-HT1B pEC50 (converted), WT receptor
  EC50: > 10000 nM
